# Measured values: paper PMC5238392, “Origin of anti-tumor activity of the cysteine-containing GO peptides and further optimization of their cytotoxic properties” (Scientific Reports, 2017)
# Like-named read-outs stand apart in the source and are kept apart here. Square brackets hold non-standard residues; d marks the D form. Peptide text beside a SMILES is read from it.
# Tests used:
# [1] = test system: human fibrosarcoma cell line HT-1080; format: cell-based
# Text: To evaluate the activity of DIL, CopYL and seven other peptides described in Table 1, we have conducted the dose-response measurements on the sensitive (HT-1080) and insensitive (ZR-75-1) cancer cell lines. The results are shown in Fig. 7A–D. For fibrosarcoma cells HT-1080, the best results are obtained using the peptide DOL with presumed disulfide oxidase properties. […] This is a much better performance than shown by GO-202 where the survival rate under identical conditions is 16%.
# All experiments were conducted in duplicate or triplicate.
# [2] = test system: human breast carcinoma cell line ZR-75-1
# Method: (§1) As a next step, we used MTS assay[27] to examine the effect of GO peptides on the viability of the four described cell cultures as a function of different treatment schemes. […] This treatment regimen is labeled 4 × 5 underneath the graph. Alternatively, we introduced 5 μM of peptide daily while exchanging the medium (denoted 4/5). Unlike the previous protocol, it avoids potential build-up of the peptide in the medium.
# (§2) The treatment protocols are: 4 × 5 – four daily doses of 5 μM delivered without exchanging the growth medium; 4/5 – four daily doses of 5 μM delivered with exchanged growth medium; 1 × 5, 1 × 10, 1 × 15, and 1 × 20 – a single dose of 5, 10, 15, or 20 μM, respectively. MTS reagent was added to the wells 96 h after the first (and sometimes the only) application of the peptide and the optical density at 492 nm was measured to determine the fraction of the surviving cells.
# (§3) The data are according to the MTS assay, where the optical density was measured 96 h after the application of the peptide.
# (§4) Cell survival was measured using CellTiter 96 AQueous One Solution Cell Proliferation Assay (MTS test, Promega, USA). Cells have been seeded in a 96-well flat-bottom plate in 100 μl of culture medium (10^3 cells/well for A549, HT-1080, dermal fibroblasts and eMSC or 5 × 10^3 cells/well for ZR-75-1) and allowed to attach for 24 h. The starting amount of cells was chosen to account for their growth rate and degree of spreading such as to avoid excessive dilution in the beginning of the experiment or control cell overgrowth toward the end. After 24 h, 10 μl of peptide stock solution or PBS (control) were added to the wells. After 96 h, 20 μl of the MTS-reagent were added to each well and 1–2 h later optical density was measured at the wavelength 492 nm using the 96-well plate reader (Titertek Multiskan, Labsystems, Finland). All experiments were conducted in duplicate or triplicate.
# [3] = test system: primary culture of human dermal fibroblasts (DF)
# Method: as §1, §2
# (§5) As a next step, we set out to test the cytotoxic effect of these peptides on the normal cells.
# as §4
# [4] = test system: human endometrial mesenchymal stem cells (eMSC)
# Method: as §3
# (§6) As a next step, we set out to test the cytotoxic effect of these peptides on the normal cells. In addition to the primary culture of dermal fibroblasts, which has been discussed above, we have also used human endometrial mesenchymal stem cells (eMSC).
# as §4
# [5] = test system: primary culture of human dermal fibroblasts (DF); test: MTS cell viability assay, dermal fibroblasts; conditions: for Effect on proliferative activity at low dose (MTS): 5 μM single dose
# Method: as §1, §2, §5, §4
# [6] = cited from earlier work
# Text: Some interesting examples of peptides with presumed DO mechanism can also be found in the literature. […] The efficiency of this peptide was critically dependent on the two contiguous cysteines: mutating these residues to alanines or serines completely abrogated its activity, whereas other alterations such as sequence reversal preserved the activity.
# lysozyme = conditions: oxidative refolding of lysozyme in vitro; cited from earlier work
# Text: One instructive example of the redox-active peptides in Table 1 is the peptide labeled DIL (disulfide-isomerase-like). Originally, Woycechowsky and Raines have investigated the CGC peptide, where they measured the redox potential of −167 mV[40]. […] Recently, a longer peptide, RKCGCFF, has been introduced by Liu et al.[41]. The two basic residues, RK, have been added to the sequence with the intent to lower the thiol pKa values, while the two hydrophobic residues, FF, have been included to improve binding of the pept ...
# [7] = test system: human fibrosarcoma cell line HT-1080; format: cell-based; conditions: for Viability of HT-1080 cells (MTS): single 20 μM dose, different incubation times, Fig. 9
# [8] = test system: human breast carcinoma and prostate cancer cells; conditions: cited from earlier work
# [9] = test system: human breast carcinoma cell line ZR-75-1; test: MTS cell viability assay, ZR-75-1; conditions: single dose
# Method: as §1, §2, §3, §4
# [10] = target: T1, reduced and denatured hen egg white lysozyme (Gallus gallus, UniProt P00698); test: Lysozyme oxidative refolding assay (disulfide oxidoreductase activity); format: biochemical; conditions: 1 mM peptide, pH 8.5, room temperature
# T1 construct: Hen egg white lysozyme (Amresco, USA) was reduced/denatured and lyophilized; purchased Amresco, USA; host or cells: hen egg white
# Text: We have also conducted in vitro experiments to directly probe disulfide oxidoreductase properties of GO-202 peptide. For this purpose we have used the well-established lysozyme refolding assay. In brief, GO-202 is applied to the sample of reduced and denatured hen lysozyme. The protein then undergoes oxidative refolding, assisted by GO-202 which plays the role of disulfide oxidase (isomerase). After a certain interval of time (Tox) this process is quenched by adding an aliquot of acid and the sample is loaded on the reverse phase column.
# Figure 10 Oxidative refolding of hen egg lysozyme as monitored by reverse-phase HPLC. […] Top panel (red traces) illustrate protein renaturation in the presence of GO-202; bottom panel (blue traces) represent control measurements with no peptide. The reaction time Tox ranging from 0 to 75 mins is listed on the left side of the individual chromatograms.
# Hen egg white lysozyme (Amresco, USA) was reduced/denatured and lyophilized according to the protocol by van den Berg et al.[54]. It was then dissolved in buffer B1 (8 M urea, 100 mM Tris-HCl, 100 mM NaCl, 1 mM EDTA, pH 8.5) to obtain solution with 100 μM lysozyme concentration. Refolding was initiated by rapid dilution of 50 μL of this solution in 150 μL of buffer B2 (100 mM Tris-HCl, 100 mM NaCl, 1 mM EDTA, pH 8.5) containing the appropriate amount of redox agent (none for control experiment, 1.0 mM/0.2 mM GSH/GSSG for calibration experiment, 1 mM of GO-202 for disulfide oxidoreductase activity assay). The reactions were carried out at room temperature and quenched by addition of 10 μL of 2.5 M HCl to produce a pH of ca. 2. Buffers B1 and B2 were degassed prior to use by applying vacuum while stirred on magnetic stirrer for 30 min.
# Reverse-phase chromatography data were obtained using Shimadzu Nexera HPLC with detection at 280 nm wavelength. The column used was Phenomenex Luna C-18 (5 μm particle size, 100 Å pore size, 150 mm length, 4.6 mm diameter); sample injection volume was 20 μL. HPLC solvent A was H2O/0.2% (v/v) trifluroacetic acid (TFA), solvent B was 90% CH3CN/10% H2O/0.2% TFA. Lysozyme was eluted using 30 min linear gradient from 35% to 45% of solvent B with a flow rate of 1 mL/min. Chromatograms from calibration GSH/GSSG experiments were in agreement with the previously reported data[54][63].
# [11] = test system: human endometrial mesenchymal stem cells (eMSC); test: MTS cell viability assay, eMSC; conditions: normal cells: eMSC; single dose, 96 h; Fig. 7E,F
# Method: as §3, §6, §4
# T1 sequence (P00698 19-147): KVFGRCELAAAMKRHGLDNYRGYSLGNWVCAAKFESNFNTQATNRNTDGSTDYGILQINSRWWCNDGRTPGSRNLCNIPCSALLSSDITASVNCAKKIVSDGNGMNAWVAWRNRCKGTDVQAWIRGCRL
compound,measurement,setting,value
[R]9CCCRRKN,"Cytotoxic activity compared with GO-202 (dose-response, MTS)",[1],"outperform the standard GO-202, although only by a small margin"
same,"Cytotoxic activity compared with GO-202 (dose-response, MTS)",[2],significantly outperform GO-202
same,"Cytotoxic activity compared with GO-202 (dose-response, MTS)",[3],outperform GO-202
same,"Cytotoxic activity compared with GO-202 (dose-response, MTS)",[4],strongest effect
same,Effect on proliferative activity at low dose (MTS),"[5]; dermal fibroblasts, 96 h",small increases in proliferative activity
[R]9KCGCFF [DIL],"Cytotoxic activity compared with GO-202 (dose-response, MTS)",[1],second best result
same,"Cytotoxic activity compared with GO-202 (dose-response, MTS)",[2],significantly outperform GO-202
same,"Cytotoxic activity compared with GO-202 (dose-response, MTS)",[3],less cytotoxic than GO-202
same,"Cytotoxic activity compared with GO-202 (dose-response, MTS)",[4],less cytotoxic than GO-202
same,Effect on proliferative activity at low dose (MTS),"[5]; dermal fibroblasts, 96 h",small increases in proliferative activity
GKAKCCK,antimicrobial activity,[6],pronounced antimicrobial activity
"RKCGCFF [peptide of Liu et al., mimic of disulfide isomerase]",Efficiency as a mimic of disulfide isomerase,lysozyme,increased efficiency
[R]9CQSRRKN,Viability of HT-1080 cells (MTS),[7],inactive
[R]9AQARRKNYGQLDIFP [CP-1],Cytotoxic properties,[8],no appreciable cytotoxic properties
[R]9SQSRRKN [control: GO-202 with S-for-C substitution],"Cytotoxic activity compared with GO-202 (dose-response, MTS)",[1],inefficient compared to GO-202
same,Viability of HT-1080 cells (MTS),[7],ineffective
[R]9FFCPHCYQ [DOL],"Cytotoxic activity compared with GO-202 (dose-response, MTS)",[1],best results
same,survival rate (MTS assay),"[1]; HT-1080, 96 h incubation with 20 μM peptide, single dose",essentially fully eliminated
same,"Cytotoxic activity compared with GO-202 (dose-response, MTS)",[2],best result
same,"Cytotoxic activity compared with GO-202 (dose-response, MTS)",[3],strongest effect
same,"Cytotoxic activity compared with GO-202 (dose-response, MTS)",[4],outperform GO-202
same,Effectiveness in killing cancer cells relative to GO-202,"[9]; 20 μM, MTS 96 h",three times more effective
[R]9SQCRRKN,Viability of HT-1080 cells (MTS),[7],inactive
[R]9GCGPCG [DRL],"Cytotoxic activity compared with GO-202 (dose-response, MTS)",[1],inactive
same,"Cytotoxic activity compared with GO-202 (dose-response, MTS)",[2],inactive
N=C(N)NCCC[C@@H](N)C(=O)N[C@H](CCCNC(=N)N)C(=O)N[C@H](CCCNC(=N)N)C(=O)N[C@H](CCCNC(=N)N)C(=O)N[C@H](CCCNC(=N)N)C(=O)N[C@H](CCCNC(=N)N)C(=O)N[C@H](CCCNC(=N)N)C(=O)N[C@H](CCCNC(=N)N)C(=O)N[C@H](CCCNC(=N)N)C(=O)N[C@@H](CS)C(=O)N[C@@H](CCC(N)=O)C(=O)N[C@@H](CS)C(=O)N[C@@H](CCCNC(=N)N)C(=O)N[C@@H](CCCNC(=N)N)C(=O)N[C@@H](CCCCN)C(=O)N[C@@H](CC(N)=O)C(=O)O [GO-202] (H-[dR][dR][dR][dR][dR][dR][dR][dR][dR]CQCRRKN-OH; N-terminus and C-terminus assumed),Disulfide oxidoreductase activity in oxidative refolding of lysozyme,"[10]; 25 μM-scale lysozyme diluted from 100 μM stock, RP-HPLC 280 nm",moderately effective disulfide oxidoreductase
same,Reaction time Tox after which a significant fraction of lysozyme is fully oxidized natively folded,[10]; RP-HPLC,15 min
same,Reaction time Tox after which native form of lysozyme is dominant,[10]; RP-HPLC,75 min
same,Reaction time Tox after which no distinct peak from reduced lysozyme is observed,"[10]; RP-HPLC, control without peptide: partially oxidized after ca. 75 mins",≤ 1 min
same,Cell viability (MTS),"[7]; HT-1080, 4 × 5: four daily doses of 5 μM without exchanging growth medium, OD 492 nm 96 h after first application, duplicate or triplicate",significant impact
same,Viability of HT-1080 cells (MTS),[7],cell death occurs soon after the GO-202 treatment
same,"Cytotoxic activity compared with GO-202 (dose-response, MTS)",[11],highly sensitive
same,"Cytotoxic activity compared with GO-202 (dose-response, MTS)","[9]; OD measured 96 h after application, Fig. 7C,D",modestly active
same,Effect on proliferative activity at low dose (MTS),"[5]; dermal fibroblasts, 96 h",small increases in proliferative activity
same,Cell viability (MTS),"[5]; dermal fibroblasts, 4 × 5: four daily doses of 5 μM without exchanging growth medium, OD 492 nm 96 h after first application",significant impact
same,"Cytotoxic activity compared with GO-202 (dose-response, MTS)","[5]; normal cells: dermal fibroblasts, single dose, 96 h, Fig. 7E,F",highly sensitive
